What was measured:
[1] = tested on: DNTs; experiment: Exhaustion marker expression on DNTs (flow cytometry); assay type: cell-based, human
From the text: FIGS. 7A-7G. […] Representative flow plot is shown (Left). The numbers represent the MFI value (Right). […] Horizontal bars represent the mean relative MFI and error bars show SEM. (FIG. 7C) Expression of exhaustion associated transcription factor gene, TOX, relative to the expression of housekeeping gene, HPRT, determined by qPCR. Each paired symbol represents DNTs from one individual. […] Subsequently, cells were intracellularly stained with anti-TNFα and anti-IFNγ antibodies, and the expression levels were determined by flow cytometry. Representative flow plot is shown (Left). The numbers represent the frequency in each gate. […] The result shown is a summary of three experiments. (FIG. 7E) Frequency of viable ctrl-DNTs and Ide-DNTs on day 17 of expansion. The cell viability was determined with Annexin V and 7-AAD staining using flow cytometry. […] (FIG. 7F) Viability of ctrl-DNTs and Ide-DNTs after co-culture with primary AML cells from 7 different patients. […]
The following antibodies were used in this study: CD4-FITC or -APCcy7, CD56-PE, CD3-PEcy7 or -Alexa Flour700, CD8-APC or -APCcy7, CD45RA-FITC, CD95-APC, CD62L-PEcy7, CTLA4-PE, LAG3-PEcy7, TIM3-APC, CD45-FITC or -APCcy7, CD34-PE, CD33-APC, AnnexinV-Pacific Blue or -FITC, 7AAD, IFNy-PE, TNFα-APC and DAPI. […] Data were obtained using Attune NXT flow Cytometer (ThermoFisher) and analyzed with Flowjo software (Tree Star, Inc.).

[2] = tested on: DNTs; experiment: Ex vivo DNT expansion in increasing concentrations of Ide; assay type: cell-based, human
Method: DNT was obtained and expanded as previously reported in the presence or absence of Ide (Selleckchem). Briefly, blood from healthy donor was collected in sodium heparin containing vacutainers (Becton, Dickinson and Company). Then, CD4^+ and CD8^+ T cells were depleted from healthy donor-derived PBMCs by incubating whole blood with RosetteSep human CD4 and CD8 depletion cocktail (StemCell Technologies) followed by density gradient centrifugation to collect CD4 and CD8 depleted buffy coats.

[3] = tested on: DNTs; experiment: CD69 expression on ex vivo expanded DNTs; assay type: cell-based, human; conditions: 0, 1 and 5 μM Ide; day 7, 10 and 17
Method: Frequency of CD69 expression from day 7, 10 and 17 ex vivo expanded DNTs in 0, 1 and 5 μM of de.

[4] = tested on: DNTs; experiment: Memory status of ex vivo expanded DNTs (CD45RA, CD62L flow cytometry); assay type: cell-based, human; conditions: end of expansion (day 17)
From the text: (FIG. 6A) Representative flow plots showing memory status. […] Tnaive/SCM=CD45RA^+CD62L^+; TCM=CD45RA^−CD62L^+; TEM=CD45RA^−CD62L; Teffector=CD45RA^+CD62L^−. (FIG. 6B) Frequency of DNTs in early memory subset TCM/SCM (CD45RA^+/CD62L^+ and CD45RA^−CD62L^+; left), TEM (CD45RA^−CD62L^−; middle) and TEFF (CD45RA^+CD62L^−; right) from day 7 to day 17 of ex vivo DNT expansion culture. […] Each dot represents DNTs from one donor. The cell number is normalized to day 0 DNT number. […] The expression shown is relative to the expression of housekeeping gene, HPRT. Each paired symbols represent DNTs from one donor. […] Expansion fold relative to the number of DNTs at the start of co-culture was determined after 2 days and 8 days (Left). Absolute number of viable DNTs from each treatment group after co-culture with OCI-AML3 (Right). […] (FIG. 6F) Memory status of DNTs 8 days post co-culture with OCI-AML3 determined by flow-cytometry. […]

[5] = autoimmune toxicities, infection, diarrhea, skin problems; cited from earlier work
[6] = tested on: DNTs; experiment: DNT viability (Annexin V, 7-AAD flow cytometry); assay type: cell-based, human; conditions: 5 healthy donors, day 17
Method: The result shown is a summary of three experiments. […] The cell viability was determined with Annexin V and 7-AAD staining using flow cytometry. […] Subsequently, the viability of DNTs (gated on CD45^high CD3^+CD33/CD34^−) were determined using flow cytometry. […] Each paired symbol represents DNTs from one donor.
and viability of effector cells was calculated by 100-% AnnexinV^+ in cultures of DNTs with AML.

[7] = tested on: DNTs; experiment: Effect of JQ1 on memory status of DNTs (flow cytometry of CD27, CD62L, CD45RA); assay type: cell-based, human; conditions: JQ1 0.075, 0.15, 0.30 μM for 20 days; day 14, 17 and 20 of DNT expansion
From the text: JQ1 was given to the culture on day 0, 3, 7, 10, 14, and 17.

[8] = tested on: conventional T cells; conditions: Kagoya et al. 2016; cited from earlier work

Row | Compound | expression of inhibitory receptor Lag3 on DNTs compared to ctrl-DNTs [1] | expression of inhibitory receptor Tim3 on DNTs compared to ctrl-DNTs [1] | DNT viability at the end of cell expansion cultures ([2]; 1 μM Ide) | cell yield at the end of expansion compared to vehicle control ([2]; 0.1-1.0 μM Ide) | DNT expansion ([2]; 3.0-10.0 μM of Ide) | CD69 expression (DNT activation signal) [3] | TCM/TSCM cell number, fold higher compared to ctrl-DNTs [4] | adverse events associated with Ide-treatment [5] | viability of DNTs after expansion [6] | memory formation of DNTs across treatment groups [7] | inducing memory phenotype on conventional T cells [8]
1 | CC[C@H](Nc1ncnc2[nH]cnc12)c1nc2cccc(F)c2c(=O)n1-c1ccccc1 [Ide, 5-fluoro-3-phenyl-2-[(1S)-1-(7H-purin-6-ylamino)propyl]quinazolin-4-one] | reduced the expression | reduced the expression | highest DNT viability | improved cell yield | compromised | reduced levels of CD69 expression in a dose-dependent manner | 3.87±0.82 fold | severe adverse events | significantly improved the viability | – | –
2 | Cc1sc2c(c1C)C(c1ccc(Cl)cc1)=N[C@@H](CC(=O)OC(C)(C)C)c1nnc(C)n1-2 [JQ1] | – | – | – | – | – | – | – | – | – | no biologically meaningful differences | top hit amongst 31 chemicals tested
